Test: Behaviour with water (emulsion formation)
Format: physicochemical
Conditions: mit Wasser bei 20 C

## CCCCCCCC/C=C\CCCCCCCCNCCCN [N-Oleyl-1,3-diammoniumpropanmonofluorophosphat]
  Verhalten mit Wasser: stabile Emulsion

Reference: EP0248972A2, “Ammoniummonofluorophosphates, process for their preparation and their use” (Benckiser-Knapsack GmbH, priority 1986, dated 1987)
